Measurements taken from patent US12568972B2, “Pyridazinol compounds and derivatives, preparation methods, herbicidal compositions and applications thereof” (Qingdao Kingagroot Chemical Compound Co., Ltd., priority 2018, dated 2026).

Columns and labels:
Test in all cases: Post-emergence test, weed control effect
Assay type in all cases: in vivo
Settings in all cases: dose 2000 g/ha, after 3 weeks
Amaranthus retroflexus = tested on: Amaranthus retroflexus
How it was run: (§1)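 Greenhouse pots, soil-sown, 0.5-2 cm cover; foliar spray at 2-3 leaf stage (2-3 wk post-sowing); cpd in acetone + Tween-80, water-diluted, + 80% veg. oil methyl ester synergist 1500 g/ha; 3 wk culture; fresh-wt inhibition graded 0-10.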

Veronica polita = tested on: Veronica polita
How it was run: as §1

Rorippa indica = tested on: Rorippa indica
How it was run: as §1

Chenopodiaceae = tested on: Chenopodiaceae
How it was run: as §1

Oc1cc(C(F)(F)F)nnc1-c1cc(OC(F)F)c(Cl)cc1Cl [Compound 165]
10: weed control effect (activity level), Amaranthus retroflexus (Amaranthus retroflexus) | weed control effect (activity level), Veronica polita (Veronica polita) | weed control effect (activity level), Rorippa indica (Rorippa indica) | weed control effect (activity level), Chenopodiaceae (Chenopodiaceae)

C=Cc1cc(-c2nnc(C(F)(F)F)cc2O)c(F)cc1Cl [Compound 166]
10: weed control effect (activity level), Amaranthus retroflexus (Amaranthus retroflexus) | weed control effect (activity level), Veronica polita (Veronica polita) | weed control effect (activity level), Rorippa indica (Rorippa indica) | weed control effect (activity level), Chenopodiaceae (Chenopodiaceae)

Oc1cc(C(F)(F)F)nnc1-c1cc(Cl)c(-c2ccccc2)c(Cl)c1 [Compound 168]
10: weed control effect (activity level), Amaranthus retroflexus (Amaranthus retroflexus) | weed control effect (activity level), Veronica polita (Veronica polita) | weed control effect (activity level), Rorippa indica (Rorippa indica) | weed control effect (activity level), Chenopodiaceae (Chenopodiaceae)

Oc1cc(C(F)(F)F)nnc1-c1cc(F)cc(/C=C/Cl)c1 [Compound 169]
10: weed control effect (activity level), Amaranthus retroflexus (Amaranthus retroflexus) | weed control effect (activity level), Veronica polita (Veronica polita) | weed control effect (activity level), Rorippa indica (Rorippa indica) | weed control effect (activity level), Chenopodiaceae (Chenopodiaceae)

C#Cc1ccc(-c2nnc(C(F)(F)F)cc2O)c(OC(C)=O)c1 [Compound 173]
10: weed control effect (activity level), Amaranthus retroflexus (Amaranthus retroflexus) | weed control effect (activity level), Veronica polita (Veronica polita) | weed control effect (activity level), Rorippa indica (Rorippa indica) | weed control effect (activity level), Chenopodiaceae (Chenopodiaceae)

CCc1cc(-c2nnc(C(F)(F)F)cc2O)c(F)cc1[N+](=O)[O-] [Compound 179]
10: weed control effect (activity level), Amaranthus retroflexus (Amaranthus retroflexus) | weed control effect (activity level), Veronica polita (Veronica polita) | weed control effect (activity level), Rorippa indica (Rorippa indica) | weed control effect (activity level), Chenopodiaceae (Chenopodiaceae)

Oc1cc(C(F)(F)F)nnc1-c1cnccc1Cl [Compound 204]
10: weed control effect (activity level), Amaranthus retroflexus (Amaranthus retroflexus) | weed control effect (activity level), Veronica polita (Veronica polita) | weed control effect (activity level), Rorippa indica (Rorippa indica) | weed control effect (activity level), Chenopodiaceae (Chenopodiaceae)

Oc1cc(C(F)(F)F)nnc1-c1cccnc1Cl [Compound 205]
10: weed control effect (activity level), Amaranthus retroflexus (Amaranthus retroflexus) | weed control effect (activity level), Veronica polita (Veronica polita) | weed control effect (activity level), Rorippa indica (Rorippa indica) | weed control effect (activity level), Chenopodiaceae (Chenopodiaceae)

Cc1cncc(-c2nnc(C(F)(F)F)cc2O)c1 [Compound 211]
10: weed control effect (activity level), Amaranthus retroflexus (Amaranthus retroflexus) | weed control effect (activity level), Veronica polita (Veronica polita) | weed control effect (activity level), Rorippa indica (Rorippa indica) | weed control effect (activity level), Chenopodiaceae (Chenopodiaceae)

N#Cc1ccc(-c2nnc(C(F)(F)F)cc2O)cn1 [Compound 212]
10: weed control effect (activity level), Amaranthus retroflexus (Amaranthus retroflexus) | weed control effect (activity level), Veronica polita (Veronica polita) | weed control effect (activity level), Rorippa indica (Rorippa indica) | weed control effect (activity level), Chenopodiaceae (Chenopodiaceae)

Oc1cc(C(F)(F)F)nnc1-c1cncc(C2CC2)c1 [Compound 214]
10: weed control effect (activity level), Amaranthus retroflexus (Amaranthus retroflexus) | weed control effect (activity level), Veronica polita (Veronica polita) | weed control effect (activity level), Rorippa indica (Rorippa indica) | weed control effect (activity level), Chenopodiaceae (Chenopodiaceae)

Oc1cc(C(F)(F)F)nnc1-c1cc(Cl)nc(Cl)c1 [Compound 218]
10: weed control effect (activity level), Amaranthus retroflexus (Amaranthus retroflexus) | weed control effect (activity level), Veronica polita (Veronica polita) | weed control effect (activity level), Rorippa indica (Rorippa indica) | weed control effect (activity level), Chenopodiaceae (Chenopodiaceae)

Cc1cc(-c2nnc(C(F)(F)F)cc2O)cnc1F [Compound 219]
10: weed control effect (activity level), Amaranthus retroflexus (Amaranthus retroflexus) | weed control effect (activity level), Veronica polita (Veronica polita) | weed control effect (activity level), Rorippa indica (Rorippa indica) | weed control effect (activity level), Chenopodiaceae (Chenopodiaceae)

Cc1cc(F)ncc1-c1nnc(C(F)(F)F)cc1O [Compound 221]
10: weed control effect (activity level), Amaranthus retroflexus (Amaranthus retroflexus) | weed control effect (activity level), Veronica polita (Veronica polita) | weed control effect (activity level), Rorippa indica (Rorippa indica) | weed control effect (activity level), Chenopodiaceae (Chenopodiaceae)

Oc1cc(C(F)(F)F)nnc1-c1ccnc(Cl)c1Cl [Compound 222]
10: weed control effect (activity level), Amaranthus retroflexus (Amaranthus retroflexus) | weed control effect (activity level), Veronica polita (Veronica polita) | weed control effect (activity level), Rorippa indica (Rorippa indica) | weed control effect (activity level), Chenopodiaceae (Chenopodiaceae)

Cc1nc(F)ccc1-c1nnc(C(F)(F)F)cc1O [Compound 223]
10: weed control effect (activity level), Amaranthus retroflexus (Amaranthus retroflexus) | weed control effect (activity level), Veronica polita (Veronica polita) | weed control effect (activity level), Rorippa indica (Rorippa indica) | weed control effect (activity level), Chenopodiaceae (Chenopodiaceae)

Oc1cc(C(F)(F)F)nnc1-c1cc(Cl)ncc1Cl [Compound 224]
10: weed control effect (activity level), Amaranthus retroflexus (Amaranthus retroflexus) | weed control effect (activity level), Veronica polita (Veronica polita) | weed control effect (activity level), Rorippa indica (Rorippa indica) | weed control effect (activity level), Chenopodiaceae (Chenopodiaceae)

Cc1cc(-c2nnc(C(F)(F)F)cc2O)cnc1Cl [Compound 225]
10: weed control effect (activity level), Amaranthus retroflexus (Amaranthus retroflexus) | weed control effect (activity level), Veronica polita (Veronica polita) | weed control effect (activity level), Rorippa indica (Rorippa indica) | weed control effect (activity level), Chenopodiaceae (Chenopodiaceae)

COc1ccc(-c2nnc(C(F)(F)F)cc2O)cn1 [Compound 226]
10: weed control effect (activity level), Amaranthus retroflexus (Amaranthus retroflexus) | weed control effect (activity level), Veronica polita (Veronica polita) | weed control effect (activity level), Rorippa indica (Rorippa indica) | weed control effect (activity level), Chenopodiaceae (Chenopodiaceae)
